Measurements published in patent US7468392B1, “Anti-fatigue cyclohexenone compounds from antrodia camphorata” (Golden Biotechnology Corporation, priority 2007, dated 2008).

Tests used:
Type in all cases: in vivo, human
healthy male volunteers [1] = test: Lactate levels in blood before/after exhaustive exercise at 80% VO2max; conditions: for blood lactate levels: exercise (DE), plasma, Mean, n = 15; for effect of supplementation after exercise on metabolism of blood lactate: exhaustive exercise at 80% VO2max, versus placebo
Method: (§1) The present invention is based on supplementing cyclohexenone of Antrodia camphorata or placebo with no cyclohexenone of Antrodia camphorata to the subjects. The subjects were tested for the anti-fatigue function after supplementing cyclohexenone of Antrodia camphorata by measuring the amounts of fatigue indexes such as CPK, lactic acid, glucose, ammonia and free fatty acid before and after exhaustive exercise load at 80% VO2max.
(§2) Subjects were randomized to receive either cyclohexenone of Antrodia camphorata or placebo. Placebo contained substances such as cornstarch but no cyclohexenone of Antrodia camphorata. A double-blind, cross-over method was performed in this study where neither the evaluator nor the subject knew the content of the test substances. Based on rules of order balance, each subject have to receive the following tests: relaxing and receiving placebo (PR), exercising and receiving placebo (PE), relaxing and receiving cyclohexenone of Antrodia camphorata (DR), and exercising and receiving cyclohexenone of Antrodia camphorata (DE). Each test was carried out for one week, and took one week off before the next test until all 4 tests were performed in each subject. The exercise was performed on a treadmill with the load intensity at the measured 80% VO2max (7.61±1.87) until exhausted. Subjects received cyclohexenone of Antrodia camphorata or placebo after exercise in the amount of 0.2 g/kg body weight per day. […] Blood was collected in anticoagulant (such as EDTA) containing collection tubes, and was centrifuged at 3000 g. for 10 min to collect the plasma. The fatigue indexes such as CPK, lactic acid, glucose, ammonia and free fatty acid were analyzed accordingly. The physiological and biochemical changes before and after exercise with different supplements were compared and shown as values of mean and standard error (Mean±SEM). […] The details for the biochemical analysis and results are described below:
The measurement of blood lactate was performed with an automated blood analyzer using dry chemistry method (Johnson & Johnson DT-60II) based on enzyme function and spectrophotometric theory. Lactate oxidase was added into a defined amount of plasma for reaction, followed by addition of 4-aminoantipyrine and 1,7-dihydroxynaphthalene. A red product was formed through activities of peroxidase. The reactions are shown below:
The absorbance at 540 nm was measured to obtain the concentration of blood lactate.

healthy male volunteers [2] = test: Free fatty acid levels before/after exhaustive exercise at 80% VO2max; conditions: for levels of free fatty acid: plasma, Mean, n = 15; for effect of supplementation after exercise on metabolism of free fatty acid: exhaustive exercise at 80% VO2max, versus placebo
Method: as §1, §2
The measurement of free fatty acid level was performed based on enzyme function and spectrophotometric theory. Acyl CoA synthetase and acyl CoA oxidase were added into a defined amount of plasma for reaction. A purple product was formed through activities of peroxidase. The reactions are shown below:
The absorbance at 550 nm was measured to obtain the concentration of free fatty acid.

healthy male volunteers [3] = test: Anti-fatigue test for cyclohexenone of Antrodia camphorata (fatigue indexes overall); conditions: after exhaustive exercising at 80% VO2max, indexes CPK, lactic acid, glucose, ammonia, free fatty acid
Method: as §1
Subjects were randomized to receive either cyclohexenone of Antrodia camphorata or placebo. Placebo contained substances such as cornstarch but no cyclohexenone of Antrodia camphorata. A double-blind, cross-over method was performed in this study where neither the evaluator nor the subject knew the content of the test substances. Based on rules of order balance, each subject have to receive the following tests: relaxing and receiving placebo (PR), exercising and receiving placebo (PE), relaxing and receiving cyclohexenone of Antrodia camphorata (DR), and exercising and receiving cyclohexenone of Antrodia camphorata (DE). […] The exercise was performed on a treadmill with the load intensity at the measured 80% VO2max (7.61±1.87) until exhausted. […] The fatigue indexes such as CPK, lactic acid, glucose, ammonia and free fatty acid were analyzed accordingly. […]

healthy male volunteers [4] = test: Ammonia levels in blood before/after exhaustive exercise at 80% VO2max; conditions: for blood ammonia levels: plasma, Mean, n = 15; for effect of supplementation after exercise on metabolism of blood ammonia: exhaustive exercise at 80% VO2max, versus placebo
Method: as §1, §2
The measurement of blood ammonia was performed with an automated blood analyzer Johnson & Johnson DT-60II based on the spectrophotometric method. Bromphenol blue was added into a defined amount of plasma to generate blue products. The reaction is shown below:
The absorbance at 605 nm was measured to obtain the concentration of blood ammonia.

[5] = listed as cyclohexenone from Antrodia camphorata
[6] = listed as cyclohexenone of Antrodia camphorata
[7] = Relax (DR), Post-exercise 0.5 h
[8] = Relax (DR), Post-exercise 120 h
[9] = Relax (DR), Post-exercise 168 h
[10] = exercise (DE), Post-exercise 0 h
[11] = exercise (DE), Post-exercise 0.5 h
[12] = exercise (DE), Post-exercise 1 h
[13] = exercise (DE), Post-exercise 2 h
[14] = exercise (DE), Post-exercise 24 h
[15] = exercise (DE), Post-exercise 48 h
[16] = exercise (DE), Post-exercise 72 h
[17] = exercise (DE), Post-exercise 120 h
[18] = exercise (DE), Post-exercise 168 h
[19] = exercise (DE), Prior to exercise
[20] = listed as cyclohexenone from Antrodia camphorea

Compound: COC1=C(OC)C(O)C(C/C=C(\C)CC/C=C(\C)CCC=C(C)C)C(C)C1=O (stereo not drawn) [cyclohexenone, 4-hydroxy-2,3-dimethoxy-6-methyl-5(3,7,11-trimethyl-dodeca-2,6,10-trienyl)-cyclohex-2-enone]
- blood lactate levels (healthy male volunteers [1]; Post-exercise 2 h): 2.9 mmol/L
- blood lactate levels (healthy male volunteers [1]; Post-exercise 24 h): 2.39 mmol/L
- blood lactate levels (healthy male volunteers [1]; Post-exercise 48 h): 2.77 mmol/L
- blood lactate levels (healthy male volunteers [1]; Post-exercise 72 h): 2.18 mmol/L
- blood lactate levels (healthy male volunteers [1]; Post-exercise 120 h): 2.53 mmol/L
- blood lactate levels (healthy male volunteers [1]; Post-exercise 168 h): 2.23 mmol/L
- blood lactate levels (healthy male volunteers [1]; Prior to exercise): 2.50 mmol/L
- effect of supplementation after exercise on metabolism of blood lactate (healthy male volunteers [1]; [5]): did not affect the metabolism of blood lactate
- effect of supplementation after exercise on metabolism of blood lactate (healthy male volunteers [1]; [6]): no significant difference
- levels of free fatty acid (healthy male volunteers [2]; Relax (DR), Post-exercise 0 h): 0.33 mM
- levels of free fatty acid (healthy male volunteers [2]; [7]): 0.34 mM
- levels of free fatty acid (healthy male volunteers [2]; Relax (DR), Post-exercise 1 h): 0.3 mM
- levels of free fatty acid (healthy male volunteers [2]; Relax (DR), Post-exercise 2 h): 0.23 mM
- levels of free fatty acid (healthy male volunteers [2]; Relax (DR), Post-exercise 24 h): 0.28 mM
- levels of free fatty acid (healthy male volunteers [2]; Relax (DR), Post-exercise 48 h): 0.29 mM
- levels of free fatty acid (healthy male volunteers [2]; Relax (DR), Post-exercise 72 h): 0.31 mM
- levels of free fatty acid (healthy male volunteers [2]; [8]): 0.48 mM
- levels of free fatty acid (healthy male volunteers [2]; [9]): 0.28 mM
- levels of free fatty acid (healthy male volunteers [2]; Relax (DR), Prior to exercise): 0.38 mM
- levels of free fatty acid (healthy male volunteers [2]; [10]): 0.91 mM
- levels of free fatty acid (healthy male volunteers [2]; [11]): 0.6 mM
- levels of free fatty acid (healthy male volunteers [2]; [12]): 0.61 mM
- levels of free fatty acid (healthy male volunteers [2]; [13]): 0.59 mM
- levels of free fatty acid (healthy male volunteers [2]; [14]): 0.41 mM
- levels of free fatty acid (healthy male volunteers [2]; [15]): 0.28 mM
- levels of free fatty acid (healthy male volunteers [2]; [16]): 0.44 mM
- levels of free fatty acid (healthy male volunteers [2]; [17]): 0.3 mM
- levels of free fatty acid (healthy male volunteers [2]; [18]): 0.32 mM
- levels of free fatty acid (healthy male volunteers [2]; [19]): 0.34 mM
- effect of supplementation after exercise on metabolism of free fatty acid (healthy male volunteers [2]; [5]): did not affect the metabolism of free fatty acid
- effect of supplementation after exercise on metabolism of free fatty acid (healthy male volunteers [2]; [6]): no significant difference
- anti-fatigue function (physiological fatigue after exercise) (healthy male volunteers [3]; listed as 4-hydroxy-2,3-dimethoxy-6-methyl-5(3,7,11-trimethyl-dodecca-2,6,10-trienyl)-cycl): can be used to delay physiological fatigue after exercise
- anti-fatigue function (physiological fatigue after exercise) (healthy male volunteers [3]; [20]): delays physiological fatigue
- ammonia levels in DE group versus those before exercise (healthy male volunteers [4]; 24 h post exercise): significantly lower
- blood ammonia levels (healthy male volunteers [4]; Relax (DR), Post-exercise 0 h): 55.60 µg/dL
- blood ammonia levels (healthy male volunteers [4]; [7]): 52.53 µg/dL
- blood ammonia levels (healthy male volunteers [4]; Relax (DR), Post-exercise 1 h): 57.47 µg/dL
- blood ammonia levels (healthy male volunteers [4]; Relax (DR), Post-exercise 2 h): 54.07 µg/dL
- blood ammonia levels (healthy male volunteers [4]; Relax (DR), Post-exercise 24 h): 30.33 µg/dL
- blood ammonia levels (healthy male volunteers [4]; Relax (DR), Post-exercise 48 h): 26.86 µg/dL
- blood ammonia levels (healthy male volunteers [4]; Relax (DR), Post-exercise 72 h): 25.20 µg/dL
- blood ammonia levels (healthy male volunteers [4]; [8]): 27.80 µg/dL
- blood ammonia levels (healthy male volunteers [4]; [9]): 28.57 µg/dL
- blood ammonia levels (healthy male volunteers [4]; Relax (DR), Prior to exercise): 39.20 µg/dL
- blood ammonia levels (healthy male volunteers [4]; [10]): 118.07 µg/dL
- blood ammonia levels (healthy male volunteers [4]; [11]): 57.64 µg/dL
- blood ammonia levels (healthy male volunteers [4]; [12]): 44.86 µg/dL
- blood ammonia levels (healthy male volunteers [4]; [13]): 37.53 µg/dL
- blood ammonia levels (healthy male volunteers [4]; [14]): 27.93 µg/dL
- blood ammonia levels (healthy male volunteers [4]; [15]): 20.93 µg/dL
- blood ammonia levels (healthy male volunteers [4]; [16]): 30.07 µg/dL
- blood ammonia levels (healthy male volunteers [4]; [17]): 23.21 µg/dL
- blood ammonia levels (healthy male volunteers [4]; [18]): 24.86 µg/dL
- blood ammonia levels (healthy male volunteers [4]; [19]): 45.86 µg/dL
- effect of supplementation after exercise on metabolism of blood ammonia (healthy male volunteers [4]; [5]): facilitates the metabolism of blood ammonia
- effect of supplementation after exercise on metabolism of blood ammonia (healthy male volunteers [4]; [20]): beneficial to the recovery of creatine phosphate kinase and blood ammonia
- blood ammonia level, exercise group versus relax group receiving cyclohexenone (healthy male volunteers [4]; post exercise at 2 h, p<0.05): significantly superior
